Experimental data as given in patent publication US8865683B2, “Active compound combinations having insecticidal properties” (priority 2003, dated 2014).

Tested on: green peach aphid (Myzus persicae)
Experiment: Myzus persicae test (cabbage leaf dip)
Assay type: in vivo
Settings: cabbage leaves (Brassica oleracea) dipped
Description: The expected action for a given combination of two active compounds can be calculated according to S. R. Colby, Weed, 15 (1967), 20-22): […]
If • X is the kill rate, expressed as a percentage of the untreated control, when employing active compound A at an application rate of m g/ha or in a concentration of m ppm, • Y is the kill rate, expressed as a percentage of the untreated control, when employing active compound B at an application rate of n g/ha or in a concentration of n ppm and • E is the kill rate, expressed as a percentage of the untreated control, when employing active compounds A and B at application rates of m and n g/ha or in a concentration of m and n ppm, then
If the actual insecticidal kill rate exceeds the calculated value, the action of the combination is superadditive, i.e. a synergistic effect is present. In this case, the actually observed kill rate must exceed the value calculated using the above formula for the expected kill rate (E).
After the desired period of time, the kill in % is determined. 100% means that all animals have been killed; 0% means that none of the animals have been killed. […]
After the desired period of time, the kill in % is determined. […] The determined kill ratios are entered into Colby's formula (see page 42).

SMILES | Kill rate in % after 1d, found (0.8 ppm active compound) | Kill rate in % after 1d, found (4 ppm active compound)
CCOP(=S)(OCC)Oc1nc(Cl)c(Cl)cc1Cl [(2-2) chlorpyrifos, chlorpyrifos] | 65% | –
Cc1cc(Cl)cc(C(=O)NC(C)C)c1NC(=O)c1cc(C(F)(F)F)nn1-c1ncccc1Cl [(I-1-9)] | – | 0%
